# Laboratory results published in ChEMBL document CHEMBL1133442, “Symmetrical bis(heteroarylmethoxyphenyl)alkylcarboxylic acids as inhibitors of leukotriene biosynthesis” (J Med Chem, 2000).
# How the values were obtained:
# Type in all cases: functional
# [1] = species on record: Homo sapiens; experiment: Inhibition of calcium ionophore (A-23187) stimulated leukotriene B4 (LTB4) formation in human neutrophils at 390 nM
# [2] = test system: Rattus norvegicus; experiment: In vivo inhibition evaluation of leukotriene inhibition in an ionophore-induced rat pleurisy at 3 mg/kg
# [3] = test system: Rattus norvegicus; experiment: Inhibition of leukotriene production in an ionophore-induced rat pleurisy model at 3 mg/kg; details: for inhibition in vivo at 3 mg/kg: Rattus norvegicus
# [4] = species on record: Homo sapiens; experiment: Inhibition of calcium ionophore (A-23187) -stimulated leukotriene B4 (LTB4) formation in human neutrophils at 390 nM
smiles,measurement,setting,value
CC(CCC(=O)O)(c1ccc(OCc2ccc3ccccc3n2)cc1)c1ccc(OCc2ccc3ccccc3n2)cc1,IC50,[1]; Homo sapiens,23 nM
same,ED50,[2],1.5 mg/kg
O=C(O)CC(c1ccc(OCc2ccc3ccccc3n2)cc1)c1ccc(OCc2ccc3ccccc3n2)cc1,inhibition in vivo at 3 mg/kg,[3],17%
same,IC50,[1]; Homo sapiens,60 nM
Cn1c(COc2ccc(C(C)(CCC(=O)O)c3ccc(OCc4ccc5ccccc5n4)cc3)cc2)nc2ccccc21 (stereo unspecified),Inhibition,[3],0%
same,IC50,[1],80 nM
CC(CCC(=O)O)(c1ccc(OCc2ccc3ccccc3c2)cc1)c1ccc(OCc2ccc3ccccc3n2)cc1 (stereo unspecified),inhibition in vivo at 3 mg/kg,[3],55%
same,inhibition at 0.39 µM,[4]; Homo sapiens,93%
CC(CCC(=O)O)(c1ccc(OCc2ccccn2)cc1)c1ccc(OCc2ccccn2)cc1,inhibition at 0.39 µM,[4],53%
same,inhibition in vivo at 3 mg/kg,[2],0%
O=C(O)CSC(c1ccc(OCc2ccc3ccccc3n2)cc1)(c1ccc(OCc2ccc3ccccc3n2)cc1)c1cccs1 [listing 1 of 2 here],IC50,[1]; Homo sapiens,11 nM
same,ED50,[2],1.1 mg/kg
C/C(=N\OCCC(C)(c1ccc(OCc2ccc3ccccc3n2)cc1)c1ccc(OCc2ccc3ccccc3n2)cc1)C(=O)O,inhibition in vivo at 3 mg/kg,[3],23%
same,inhibition at 0.39 µM,[4]; Homo sapiens,54%
O=C(O)/C=N/OC(c1ccc(OCc2ccc3ccccc3n2)cc1)c1ccc(OCc2ccc3ccccc3n2)cc1,inhibition in vivo at 3 mg/kg,[3],37%
same,IC50,[1]; Homo sapiens,68 nM
CC(/C=C/C(=O)O)=N\OC(c1ccc(OCc2ccc3ccccc3n2)cc1)c1ccc(OCc2ccc3ccccc3n2)cc1,inhibition in vivo at 3 mg/kg,[3],27%
same,IC50,[1]; Homo sapiens,30 nM
C/C(=N\OC1CCC(c2ccc(OCc3ccc4ccccc4n3)cc2)(c2ccc(OCc3ccc4ccccc4n3)cc2)CC1)C(=O)O,inhibition in vivo at 3 mg/kg,[3],48%
same,IC50,[1]; Homo sapiens,37 nM
CC(C)(C(=O)O)C(c1ccc(OCc2ccc3ccccc3n2)cc1)c1ccc(OCc2ccc3ccccc3n2)cc1,inhibition in vivo at 3 mg/kg,[3],50%
same,IC50,[1]; Homo sapiens,100 nM
CC(CCCC(=O)O)(c1ccc(OCc2ccc3ccccc3n2)cc1)c1ccc(OCc2ccc3ccccc3n2)cc1 [listing 1 of 2 here],Inhibition,[3],32%
same,IC50,[1],43 nM
O=C(O)CSC(c1ccc(OCc2ccc3ccccc3n2)cc1)(c1ccc(OCc2ccc3ccccc3n2)cc1)c1cccs1 [listing 2 of 2 here],inhibition in vivo at 3 mg/kg,[3],80%
Cn1c(COc2ccc(C(C)(CCC(=O)[O-])c3ccc(OCc4nc5ccccc5n4C)cc3)cc2)nc2ccccc21.[Na+],Inhibition,[3],29%
same,Inhibition,[4],59%
O=C(O)CSC(c1ccc(OCc2ccc3ccccc3n2)cc1)c1ccc(OCc2ccc3ccccc3n2)cc1,IC50,[1]; Homo sapiens,58 nM
CC(C(=O)[O-])(c1ccc(OCc2ccc3ccccc3n2)cc1)c1ccc(OCc2ccc3ccccc3n2)cc1.[Na+],Inhibition,[3],46%
same,IC50,[1],37 nM
Cn1c(COc2ccc(C(C)(CCC(=O)O)c3ccc(OCc4nc5ccccc5n4C)cc3)cc2)nc2ccccc21,Inhibition,[3],0%
same,Inhibition,[4],27%
CC(CCC(=O)[O-])(c1ccc(OCc2ccc3ccccc3c2)cc1)c1ccc(OCc2ccc3ccccc3n2)cc1.[Na+] (stereo unspecified),Inhibition,[3],40%
Cn1c(COc2ccc(C(C)(CCC(=O)[O-])c3ccc(OCc4ccc5ccccc5n4)cc3)cc2)nc2ccccc21.[Na+] (stereo unspecified),Inhibition,[3],10%
same,IC50,[1]; Homo sapiens,90 nM
CC(CCCC(=O)O)(c1ccc(OCc2ccc3ccccc3n2)cc1)c1ccc(OCc2ccc3ccccc3n2)cc1 [listing 2 of 2 here],inhibition in vivo at 3 mg/kg,[3],35%
same,IC50,[1]; Homo sapiens,32 nM
O=C(O)CSC(c1ccccc1)(c1ccc(OCc2ccc3ccccc3n2)cc1)c1ccc(OCc2ccc3ccccc3n2)cc1,IC50,[1]; Homo sapiens,87 nM
CC(CCC(=O)O)(c1ccc(OCc2nc3ccccc3s2)cc1)c1ccc(OCc2nc3ccccc3s2)cc1 [listing 1 of 2 here],IC50,[1],50 nM
CC(CCC(=O)O)(c1ccc(OCc2nc3ccccc3s2)cc1)c1ccc(OCc2nc3ccccc3s2)cc1 [listing 2 of 2 here],inhibition in vivo at 3 mg/kg,[3],0%
same,IC50,[1]; Homo sapiens,46 nM
O=C([O-])CC(c1ccc(OCc2ccc3ccccc3n2)cc1)c1ccc(OCc2ccc3ccccc3n2)cc1.[Na+],Inhibition,[3],30%
same,IC50,[1],70 nM
CC(C(=O)O)(c1ccc(OCc2ccc3ccccc3n2)cc1)c1ccc(OCc2ccc3ccccc3n2)cc1,Inhibition,[3],25%
same,IC50,[1]; Homo sapiens,32 nM
O=C([O-])C=C(c1ccc(OCc2ccc3ccccc3n2)cc1)c1ccc(OCc2ccc3ccccc3n2)cc1.[Na+],Inhibition,[3],19%
same,IC50,[1],40 nM
OC(c1ccc(OCc2ccc3ccccc3n2)cc1)(c1ccc(OCc2ccc3ccccc3n2)cc1)c1cccs1,inhibition in vivo at 3 mg/kg,[3],0%
same,inhibition at 0.39 µM,[4]; Homo sapiens,87%
CC(CCC(=O)O)(c1ccc(OCc2ccc3ccccc3n2)cc1)c1ccc(OCc2nc3ccccc3s2)cc1 (stereo unspecified),inhibition in vivo at 3 mg/kg,[3],35%
same,inhibition at 0.39 µM,[4]; Homo sapiens,95%
C/C(=N\OCCCC(C)(c1ccc(OCc2ccc3ccccc3n2)cc1)c1ccc(OCc2ccc3ccccc3n2)cc1)C(=O)O,inhibition in vivo at 3 mg/kg,[3],4%
same,IC50,[1]; Homo sapiens,35 nM
OCC1CCC(c2ccc(OCc3ccc4ccccc4n3)cc2)(c2ccc(OCc3ccc4ccccc4n3)cc2)CC1,inhibition at 0.39 µM,[4]; Homo sapiens,28%
O=C(O)/C=N/OC1CCC(c2ccc(OCc3ccc4ccccc4n3)cc2)(c2ccc(OCc3ccc4ccccc4n3)cc2)CC1,inhibition in vivo at 3 mg/kg,[3],15%
same,inhibition at 0.39 µM,[4]; Homo sapiens,54%
